Data set [1] can be described thus: Osmotic pressure of the solute. Format: physicochemical. The text has this: The osmotic pressure, ATM, of the above solutes can be measured in a commercially available osmometer that measures the vapor pressure difference between pure water and the solution containing a solute to be analyzed, and according to standard thermodynamic principles, the vapor pressure ratio is converted into osmotic pressure difference. An osmometer that can be used for the present measurements is identified as Model 302B Vapor Pressure Osmometer, manufactured by Hewlett Packard Company, Avondale, Pa.

Data set [2] is described as follows: Solubility in distilled water. The class given is physicochemical.
Data set [3] relates to open-angle glaucoma, intraocular pressure. Put plainly: Clinical study of mean intraocular pressure (IOP) in patients diagnosed as having open-angle glaucoma. Format: in vivo, patients (human). To be noted: 12 patients. The source says: The present invention provides an ocular therapeutic system for administering a therapeutically effective amount of a beta-adrenergic blocking drug, and a therapeutically effective amount of a parasympathomimetic drug concurrently from a single ocular dosage form that can lead to synergestic clinical results. The clinical study that follows presents the results obtained by the simultaneous administration to the eye of a beta-adrenergic blocking drug and a parasympathomimetic drug to the eyes of patients.
In a clinical study using 12 patients diagnosed as having open-angle glaucoma, the mean intraocular pressures, IOP's, were measured with each patient under the following therapies: (a) S-(-)-1-(tert-butylamino)-3-[(4-morpholino-1,2,5-thiadiazol-3-yl)oxy-2-propanol maleate, timolol maleate, 0.25% ophthalmic solution instilled as drop alone; (b) timolol maleate, 0.50% ophthalmic solution instilled as drop alone; (c) (3s-cis)-3-ethyldihydro-4-[(1-methyl-1H-imidazol-5-yl) methyl]-2(3H)-furanone, pilocarpine, administered at a rate of 40 micrograms per hour from an ocular therapeutic system placed in the conjunctival sac; (d) therapy comprising 0.25 timolol maleate instilled with concomitant release of 40 micrograms of pilocarpine from an ocular system; and (e) therapy comprising 0.50 timolol maleate instilled with concomitant release of 40 mcg (micrograms) of pilocarpine from an ocular system. In the table, the results of (a) and (c) administered alone are additive, while the results are synergistic for (d) wherein the two drugs were administered concomitantly to the eye. In the table, the results of (b) and (c) administered alone are additive, where the results are synergistic for (e) wherein the two drugs were administered concomitantly to the eye.

Each structure is given as a SMILES string. ≈ marks a conversion by molar mass, not a printed value. Counter-ions that a name gives are not always drawn.

The record followed here is patent US4281654A, “Drug delivery system for controlled ocular therapy” (ALZA Corporation, priority 1980, dated 1981).

The compound `CC[C@@H]1C(=O)OC[C@@H]1Cc1cncn1C` [(3S-cis)-ethyldihydro-4-[(1-methyl-1H-imidazol-5-yl)methyl]-2(3H)-furanonenitrate] returned an osmotic pressure in data set [1] of 37 atm. Besides, the solubility (as a rule, how much of the substance goes into solution per volume) in data set [2] (water) stood at 270 mg/mL (≈ 1300 mM).

`COCCc1ccc(OCC(O)CNC(C)C)cc1` (racemic) [(±)-1-[4-(2-methoxyethyl)-phenoxy]-3-[(1-methylethyl)amino]-2-propanol tratrate] came in with an osmotic pressure in data set [1] of 210 atm. In data set [2] (25° C), this compound gave a solubility of 860 mg/mL (≈ 3220 mM).

As for `CC(C)(C)NC[C@H](O)COc1nsnc1N1CCOCC1` [timolol, S-(-)-1-(tert-butylamino)-3-[(4-morpholino-1,2,5-thiadiazol-3-yl)oxy-2-propanol maleate], the entries for the “Mean IOP Reduction” value in data set [3] ((a) timolol maleate 0.25% ophthalmic solution instilled as drop alone) and in data set [3] ((b) timolol maleate 0.50% ophthalmic solution instilled as drop alone) were 1.4 mm and 2.4 mm, respectively. Regarding `CC[C@@H]1C(=O)OC[C@@H]1Cc1cncn1C` (relative stereo) [pilocarpine, (3s-cis)-3-ethyldihydro-4-[(1-methyl-1H-imidazol-5-yl)methyl]-2(3H)-furanone], the “Mean IOP Reduction” value in data set [3] ((c) pilocarpine 40 mcg/hr alone from ocular therapeutic system in conjunctival sac) is on record as 1.6 mm.
